Measurements reported in article PMC9496042 (2022).

What was measured:
[1] = test system: Apt-14t (DNA, aptamer) ACGGCCAGTGGGTGGGGCGGGTGGCGGCCGGTTGTTTCTATGC; experiment: graphene oxide fluorescence recovery (FAM); conditions: 100 mM NaCl, 5 mM KCl, 2 mM MgCl2, 1 mM CaCl2; for binding: binding buffer pH 7.6, 100 nM aptamer, 1 µM compound
[2] = test system: Apt-1 (DNA, aptamer) GCTGTGTGACTCCTGCAAGGTCCTCGGGTGGTGGGTGGGCTCGGGTTTTTGTTCACTCTCCGCAGCTGTATCTTGTCTCC; experiment: graphene oxide fluorescence recovery (FAM); conditions: 100 mM NaCl, 5 mM KCl, 2 mM MgCl2, 1 mM CaCl2; 20 mM Tris-HCl pH 7.6 (binding buffer); aptamer titrated at fixed FF (1 M [sic])
[3] = test system: Apt-15 (DNA, aptamer) GCTGTGTGACTCCTGCAACACGAACGTTTCCGTGGGTGGGTGGGTGGCCAAATGTCGCGTGGCAGCTGTATCTTGTCTCC; experiment: graphene oxide fluorescence recovery (FAM); conditions: 100 mM NaCl, 5 mM KCl, 2 mM MgCl2, 1 mM CaCl2; 20 mM Tris-HCl pH 7.6 (binding buffer); aptamer titrated at fixed FF (1 M [sic])
[4] = test system: Apt-20 (DNA, aptamer) GCTGTGTGACTCCTGCAAGCGCAATGATGTGTTGTGGGTGGGCGGGTGGCTCATTGCGTGGGCAGCTGTATCTTGTCTCC; experiment: graphene oxide fluorescence recovery (FAM); conditions: 100 mM NaCl, 5 mM KCl, 2 mM MgCl2, 1 mM CaCl2; 20 mM Tris-HCl pH 7.6 (binding buffer); aptamer titrated at fixed FF (1 M [sic])
[5] = test system: Apt-14t (AuNP assay) (DNA, aptamer) ACGGCCAGTGGGTGGGGCGGGTGGCGGCCGGTTGTTTCTATGC; experiment: AuNP colorimetry (A650/A520); conditions: 100 mM NaCl, 5 mM KCl, 2 mM MgCl2, 1 mM CaCl2; binding buffer pH 7.6, 37 °C; 200 nM aptamer; NaCl added after binding to aggregate AuNPs
[6] = test system: Apt-14 (DNA, aptamer) GCTGTGTGACTCCTGCAAACGGCCAGTGGGTGGGGCGGGTGGCGGCCGGTTGTTTCTATGCGCAGCTGTATCTTGTCTCC; experiment: graphene oxide fluorescence recovery (FAM); conditions: 100 mM NaCl, 5 mM KCl, 2 mM MgCl2, 1 mM CaCl2; 20 mM Tris-HCl pH 7.6 (binding buffer); aptamer titrated at fixed FF (1 M [sic]); GO:ssDNA 20:1

| binding [1] | Kd ([1]; 20 mM Tris-HCl pH 7.6 (binding buffer), aptamer titrated 0-200 nM at fixed FF (1 M [sic])) | Kd [2] | Kd [3] | Kd [4] | binding [5] | Kd [6] | Structure (SMILES) |
| --- | --- | --- | --- | --- | --- | --- | --- |
| weak | – | – | – | – | – | – | O=C(N[C@H](CO)[C@H](O)c1ccc([N+](=O)[O-])cc1)C(Cl)Cl |
| – | 4.66 ± 0.75 nM | 70.90 ± 22.36 nM | 57.41 ± 18.0 nM | 59.44 ± 16.9 nM | yes | 34.65 ± 5.7 nM | CS(=O)(=O)c1ccc([C@@H](O)[C@@H](CF)NC(=O)C(Cl)Cl)cc1 |
| weak | – | – | – | – | – | – | CS(=O)(=O)c1ccc([C@@H](O)[C@@H](CO)NC(=O)C(Cl)Cl)cc1 |
| yes | – | – | – | – | yes | – | CS(=O)(=O)c1ccc([C@@H](O)[C@H](N)CF)cc1 |
